Source: ChEMBL document CHEMBL1201862, “PubChem BioAssay data set” (2004)
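Cells were grown in 96-well plates and exposed to each compound for 48 hours at five concentrations; endpoints were interpolated linearly between bracketing concentrations, or set to the highest concentration if not reached. GI50 marks 50% less growth.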 The source made the active and inactive calls. No stated cut-off is given here; in the data, active = GI50 up to about 1.1 µM and inactive = higher.

Columns and labels:
Assay in all cases: growth of human tumour cells (NCI), 48 h
[1] = tested on: HL-60
[2] = tested on: SK-MEL-5
[3] = tested on: SK-OV-3
[4] = tested on: NCI-H460
[5] = tested on: UACC-62
[6] = tested on: ACHN
[7] = tested on: NCI-H522
[8] = tested on: MCF7
[9] = tested on: MOLT-4
[10] = tested on: NCI/ADR-RES
[11] = tested on: SR
[12] = tested on: SK-MEL-28
[13] = tested on: SK-MEL-2
[14] = tested on: OVCAR-8
[15] = tested on: A498
[16] = tested on: SF-268
[17] = tested on: HOP-62
[18] = tested on: IGROV-1
[19] = tested on: UACC-257
[20] = tested on: CCRF-CEM
[21] = tested on: EKVX
[22] = tested on: RXF 393
[23] = tested on: A549
[24] = tested on: SF-539
[25] = tested on: SW-620
[26] = tested on: M14
[27] = tested on: 786-0
[28] = tested on: OVCAR-4
[29] = tested on: Hs-578T
[30] = tested on: KM12
[31] = tested on: SF-295
[32] = tested on: LOX IMVI
[33] = tested on: HCT-116
[34] = tested on: HT-29
[35] = tested on: U-251
[36] = tested on: HOP-92
[37] = tested on: MDA-MB-435
[38] = tested on: BT-549
[39] = tested on: Malme-3M
[40] = tested on: SN12C
[41] = tested on: DU-145
[42] = tested on: UO-31
[43] = tested on: T47D
[44] = tested on: MDA-N
[45] = tested on: K562
[46] = tested on: NCI-H23
[47] = tested on: OVCAR-3
[48] = tested on: HCC 2998
[49] = tested on: CAKI-1
[50] = tested on: HCT-15
[51] = tested on: TK-10
[52] = tested on: MDA-MB-231
[53] = tested on: NCI-H226
[54] = tested on: OVCAR-5
[55] = tested on: SNB-75
[56] = tested on: COLO 205
[57] = tested on: RPMI-8226
[58] = tested on: SNB-19
[59] = tested on: PC-3

Measured: GI50

S=C1NCCN1C(=S)Nc1ccccc1
inactive: [1] > 100 µM | [2] > 100 µM | [3] > 100 µM | [4] 89.5 µM | [5] 96.8 µM | [6] > 100 µM | [7] 60.8 µM | [8] > 100 µM | [9] 34.8 µM | [10] > 100 µM | [11] 42.4 µM | [12] 56.2 µM | [13] > 100 µM | [14] > 100 µM | [15] 32.4 µM | [16] 99.5 µM | [17] > 100 µM | [18] > 100 µM | [19] 96.2 µM | [20] 62.2 µM | [21] 33.9 µM | [22] 10.5 µM | [23] 44.1 µM | [24] 46.3 µM | [25] > 100 µM | [26] 61.5 µM | [27] > 100 µM | [28] 21.9 µM | [29] 84.1 µM | [30] 49.9 µM | [31] > 100 µM | [32] > 100 µM | [33] 91.2 µM | [34] > 100 µM | [35] > 100 µM | [36] 66.8 µM | [37] 46.5 µM | [38] 83 µM | [39] > 100 µM | [40] > 100 µM | [41] > 100 µM | [42] 36.7 µM | [43] 40.1 µM | [44] > 100 µM | [45] 74.6 µM | [46] 60.4 µM | [47] 90.8 µM | [48] 65.5 µM | [49] 46.8 µM | [51] 95.9 µM | [52] > 100 µM | [53] 51.4 µM | [54] > 100 µM | [55] 32.4 µM | [56] 71.6 µM
68.9 µM: [50]

COC1CC(OC2CCC3(C)C(=CCC4C3C(OC(C)=O)C(OC(=O)CC(C)C)C3(C)C(C(C)=O)CCC43O)C2)OC(C)C1OC1CC(OC)C(OC2CC(OC)C(OC3OC(C)C(OC4OC(CO)C(O)C(O)C4O)C(OC)C3O)C(C)O2)C(C)O1 (stereo unspecified)
inactive: [1] > 75 µM | [2] > 75 µM | [3] > 75 µM | [57] > 75 µM | [4] > 7.5 µM | [5] > 75 µM | [6] > 75 µM | [7] > 75 µM | [8] > 75 µM | [58] > 75 µM | [9] > 75 µM | [10] > 75 µM | [12] > 75 µM | [13] > 75 µM | [14] > 75 µM | [15] > 75 µM | [16] > 75 µM | [17] 11.6 µM | [18] > 75 µM | [19] > 75 µM | [20] > 7.5 µM | [21] > 75 µM | [23] > 75 µM | [59] > 75 µM | [24] > 75 µM | [25] > 75 µM | [26] > 75 µM | [27] > 75 µM | [28] > 75 µM | [29] > 75 µM | [30] > 75 µM | [31] > 75 µM | [32] > 75 µM | [33] > 75 µM | [34] > 75 µM | [35] > 75 µM | [36] > 75 µM | [37] > 75 µM | [38] > 75 µM | [40] > 75 µM | [41] > 75 µM | [42] > 75 µM | [43] > 75 µM | [44] > 75 µM | [45] > 75 µM | [46] > 75 µM | [47] > 75 µM | [48] > 75 µM | [49] > 75 µM | [51] > 75 µM | [52] > 75 µM | [53] > 75 µM | [54] > 75 µM | [55] > 75 µM | [56] > 75 µM
> 75 µM: [50]

CC(C)CC(=O)NC(Nc1ccc(S(=O)(=O)Nc2ncccn2)cc1)(C(F)(F)F)C(F)(F)F
inactive: [1] > 100 µM | [2] > 100 µM | [3] > 100 µM | [57] > 100 µM | [4] > 100 µM | [5] > 100 µM | [6] > 100 µM | [7] > 100 µM | [58] > 100 µM | [9] > 100 µM | [10] > 100 µM | [11] > 100 µM | [12] > 100 µM | [13] > 100 µM | [14] > 100 µM | [16] > 100 µM | [17] > 100 µM | [18] > 100 µM | [19] > 100 µM | [20] > 100 µM | [21] > 100 µM | [22] 20.4 µM | [23] > 100 µM | [59] > 100 µM | [24] > 100 µM | [25] > 100 µM | [26] > 100 µM | [27] > 100 µM | [28] > 100 µM | [29] > 100 µM | [30] > 100 µM | [31] > 100 µM | [32] > 100 µM | [33] > 100 µM | [34] > 100 µM | [35] > 100 µM | [36] > 100 µM | [37] > 100 µM | [38] > 100 µM | [39] > 100 µM | [40] > 100 µM | [41] > 100 µM | [42] > 100 µM | [43] > 100 µM | [44] > 100 µM | [45] > 100 µM | [46] > 100 µM | [47] > 100 µM | [48] > 100 µM | [49] > 100 µM | [52] > 100 µM | [53] > 100 µM | [54] > 100 µM | [55] > 100 µM | [56] > 100 µM
> 100 µM: [50]

O=C(O)c1cc(Sc2ccc([N+](=O)[O-])c(C(=O)O)c2)ccc1[N+](=O)[O-]
inactive: [1] > 100 µM | [2] > 100 µM | [3] > 100 µM | [57] > 100 µM | [4] > 100 µM | [5] > 100 µM | [6] > 100 µM | [8] > 100 µM | [58] > 100 µM | [9] > 100 µM | [10] > 100 µM | [12] > 100 µM | [13] > 100 µM | [14] > 100 µM | [15] > 100 µM | [16] > 100 µM | [17] > 100 µM | [18] > 100 µM | [19] > 100 µM | [20] > 100 µM | [21] > 100 µM | [22] > 100 µM | [23] > 100 µM | [59] > 100 µM | [24] > 100 µM | [25] > 100 µM | [26] > 100 µM | [27] > 100 µM | [28] > 100 µM | [29] > 100 µM | [30] > 100 µM | [31] > 100 µM | [32] > 100 µM | [33] > 100 µM | [34] > 100 µM | [35] > 100 µM | [36] > 100 µM | [37] > 100 µM | [38] > 100 µM | [40] > 100 µM | [41] > 100 µM | [42] > 100 µM | [43] > 100 µM | [44] > 100 µM | [45] > 100 µM | [47] > 100 µM | [51] > 100 µM | [52] > 100 µM | [53] > 100 µM | [54] > 100 µM | [56] > 100 µM
active: [39] 0.413 µM
> 100 µM: [50]

O=C(O)CSc1nc2ccccc2[nH]1
> 100 µM: [50]
inactive: [4] > 100 µM | [5] > 100 µM | [6] > 100 µM | [7] > 100 µM | [58] > 100 µM | [9] 6.25 µM | [10] > 100 µM | [11] > 100 µM | [12] > 100 µM | [13] 74.1 µM | [14] > 100 µM | [15] > 100 µM | [16] > 100 µM | [17] > 100 µM | [18] > 100 µM | [19] > 100 µM | [21] > 100 µM | [22] > 100 µM | [23] > 100 µM | [59] > 100 µM | [25] > 100 µM | [26] > 100 µM | [27] > 100 µM | [28] > 100 µM | [29] > 100 µM | [30] > 100 µM | [31] > 100 µM | [32] > 100 µM | [33] > 100 µM | [34] > 100 µM | [35] > 100 µM | [36] > 100 µM | [37] > 100 µM | [38] > 100 µM | [39] > 100 µM | [40] > 100 µM | [41] > 100 µM | [42] > 100 µM | [43] > 100 µM | [44] > 100 µM | [45] > 100 µM | [46] > 100 µM | [47] > 100 µM | [48] > 100 µM | [49] > 100 µM | [51] > 100 µM | [52] > 100 µM | [54] > 100 µM | [55] > 100 µM
